Where two headings read alike, the source gives them in different places. Numbered stars: 1 amine (or outer) side, 2 acyl side, 3 side chain; on linkers, the order of the positions; unused ones are H or OH. Square brackets hold non-standard residues; d marks the D form. Side chains are listed from the residue outwards. Peptide text beside a SMILES is read from it. * marks the point of attachment. C20 diacid = O=C(O)CCCCCCCCCCCCCCCCCCC(=O)*; C18 diacid = O=C(O)CCCCCCCCCCCCCCCCC(=O)*; γGlu = O=C(O)[C@H](CCC(=O)[*:2])N[*:1]; Met(O2) = CS(=O)(=O)CC[C@H](N)C(=O)O; αMeF = C[C@](N)(Cc1ccccc1)C(=O)O; αMeD = C[C@](N)(CC(=O)O)C(=O)O; αMeS = C[C@](N)(CO)C(=O)O; AEEA = NCCOCCOCC(=O)O; Aib = CC(C)(N)C(=O)O
How the values were obtained:
human GCGR = biological target: T1, human GCGR (Homo sapiens, UniProt P47871); assay: cAMP activity assay at the Glucagon receptor (GCGR); assay type: cell-based; settings: for hGCGR/hGLP1R (hTone): ratio of GCGR EC50 to GLP1R EC50
T1 construct: expressed in transfected cells; growth medium holds Blasticidin and Hygromycin
T1 sequence (P47871 26-477): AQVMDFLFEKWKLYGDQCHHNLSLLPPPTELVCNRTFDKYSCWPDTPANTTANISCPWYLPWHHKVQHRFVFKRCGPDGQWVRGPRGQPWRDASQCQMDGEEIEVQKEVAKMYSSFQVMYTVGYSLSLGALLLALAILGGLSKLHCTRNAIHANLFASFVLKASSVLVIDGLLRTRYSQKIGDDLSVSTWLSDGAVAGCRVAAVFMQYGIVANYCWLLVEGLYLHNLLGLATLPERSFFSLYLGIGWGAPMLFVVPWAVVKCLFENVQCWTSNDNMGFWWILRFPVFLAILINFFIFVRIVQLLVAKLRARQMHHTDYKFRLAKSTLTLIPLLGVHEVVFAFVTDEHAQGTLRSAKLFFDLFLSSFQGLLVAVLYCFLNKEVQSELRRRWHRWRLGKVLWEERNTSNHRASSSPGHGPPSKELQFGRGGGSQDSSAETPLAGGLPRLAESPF
Procedure, shortened: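 Peptides serially diluted from DMSO (10 points) and added to frozen-stock cells bearing human GLP1R (10,000 cells/well) or GCGR (30,000 cells/well), 1 h at RT, dark. EC50 by four-parameter logistic fit of HitHunter cAMPXS luminescence, read following overnight RT incubation.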

human GLP1R = biological target: T2, human GLP1R (Homo sapiens, UniProt P43220); assay: cAMP activity assay at the GLP-1 receptor (GLP1R); assay type: cell-based
T2 construct: expressed in transfected cells; growth medium holds Blasticidin and Hygromycin
T2 sequence (P43220 24-463): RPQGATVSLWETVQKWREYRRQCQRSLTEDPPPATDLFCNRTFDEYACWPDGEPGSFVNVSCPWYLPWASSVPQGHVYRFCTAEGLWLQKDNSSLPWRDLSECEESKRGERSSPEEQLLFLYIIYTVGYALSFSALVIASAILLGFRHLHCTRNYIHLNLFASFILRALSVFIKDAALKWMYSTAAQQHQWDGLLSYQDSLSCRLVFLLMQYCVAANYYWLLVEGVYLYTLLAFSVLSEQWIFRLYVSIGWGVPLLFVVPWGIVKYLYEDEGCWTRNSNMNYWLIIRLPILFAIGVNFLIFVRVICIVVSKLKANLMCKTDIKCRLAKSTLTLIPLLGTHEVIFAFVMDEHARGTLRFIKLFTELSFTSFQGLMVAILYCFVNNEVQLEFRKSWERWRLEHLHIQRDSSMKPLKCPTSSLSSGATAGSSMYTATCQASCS
Description: Activity of the peptides at the Glucagon receptor (GCGR) and GLP-1 receptor (GLP1R) was measured in a cAMP activity assay.
GCG/GLP-1 receptor co-agonist peptides were dissolved in 100% DMSO (dimethyl sulfoxide) and serially diluted to generate 10 point titrations. The peptide solutions were then transferred into 384-well assay plates (150 nL/well). Assay ready frozen cells expressing human GLP1R or human GCGR were suspended in growth media consisting of DMEM medium (GIBCO®), 10% FBS (GIBCO®), 1×NEAA(GIBCO®), 1×P/S (GIBCO®), 10 ug/mL Blasticidin (GIBCO®) and 200 μg/mL Hygromycin (GIBCO®). […] The cell suspensions (15 μL) were then added to the assay plates containing the peptide solutions (30,000 cells/well for human GCGR; 10,000 cells/well for human GLP1R). The cells were incubated for 1 hour at room temperature in the dark. Production of cAMP was determined using HitHunter™ cAMPXS kits (DiscoverX) following manufacturer protocol. The plates were incubated for overnight at room temperature in the dark. Luminescence was measured using an EnVision Multilabel plate reader (Perkin Elmer). Native GLP-1 and Glucagon (Bachem) are used as control peptides. EC50 values were calculated using uses a 4 parameter logistic fit based on the Levenberg-Marquardt algorithm.

[1] = summary statement: EC50 at each of the glucagon and GLP-1 receptors, read-out: EC50 at the glucagon receptor
[2] = summary statement: EC50 at each of the glucagon and GLP-1 receptors, read-out: EC50 at the GLP-1 receptor
[3] = cells expressing human GCGR, cAMP production, buffer with or without 20% human serum (not stated which), read-out: GCGR EC50 human
[4] = cells expressing human GLP1R, cAMP production, buffer with or without 20% human serum (not stated which), read-out: GLP1R EC50 human

CC(C)C[C@H](NC(=O)[C@H](Cc1ccc(O)cc1)NC(=O)[C@H](CCCCN)NC(=O)[C@H](CO)NC(=O)[C@H](Cc1ccc(O)cc1)NC(=O)[C@H](CC(=O)O)NC(=O)[C@H](CO)NC(=O)[C@@H](NC(=O)[C@H](Cc1ccccc1)NC(=O)[C@@H](NC(=O)CNC(=O)[C@H](CCC(N)=O)NC(=O)C(C)(C)NC(=O)[C@@H](N)Cc1c[nH]cn1)[C@@H](C)O)[C@@H](C)O)C(=O)N[C@@H](CC(=O)O)C(=O)NC(C)(C)C(=O)N[C@@H](CCCNC(=N)N)C(=O)N[C@@H](C)C(=O)N[C@@H](C)C(=O)N[C@@H](CCCCNC(=O)COCCOCCNC(=O)COCCOCCNC(=O)CC[C@H](NC(=O)CCCCCCCCCCCCCCCCCCC(=O)O)C(=O)O)C(=O)N[C@@H](CC(=O)O)C(=O)N[C@@H](Cc1ccccc1)C(=O)N[C@H](C(=O)N[C@@H](CCC(N)=O)C(=O)N[C@@H](Cc1c[nH]c2ccccc12)C(=O)N[C@@H](CC(C)C)C(=O)N[C@@H](CCS(C)(=O)=O)C(=O)N[C@@](C)(CC(=O)O)C(=O)N[C@H](C(N)=O)[C@@H](C)O)C(C)C [TP588] (H-H[Aib]QGTFTSDYSKYLD[Aib]RAAK([AEEA-AEEA-γGlu-C20 diacid])DFVQWL[Met(O2)][αMeD]T-NH2; N-terminus assumed)
hGCGR/hGLP1R (hTone) (human GCGR): 0.9
EC50 (human GCGR; [1]): < 5 nM
EC50 (human GLP1R; [2]): < 5 nM

CC(C)C[C@H](NC(=O)[C@H](Cc1ccc(O)cc1)NC(=O)[C@H](CCCCN)NC(=O)[C@H](CO)NC(=O)[C@H](Cc1ccc(O)cc1)NC(=O)[C@H](CC(=O)O)NC(=O)[C@H](CO)NC(=O)[C@@H](NC(=O)[C@H](Cc1ccccc1)NC(=O)[C@@H](NC(=O)CNC(=O)[C@H](CCC(N)=O)NC(=O)C(C)(C)NC(=O)[C@@H](N)Cc1c[nH]cn1)[C@@H](C)O)[C@@H](C)O)C(=O)N[C@@H](CC(=O)O)C(=O)N[C@@H](C)C(=O)N[C@@H](CCCNC(=N)N)C(=O)N[C@@H](C)C(=O)N[C@@H](C)C(=O)N[C@@H](CCCCNC(=O)COCCOCCNC(=O)COCCOCCNC(=O)CC[C@H](NC(=O)CCCCCCCCCCCCCCCCCCC(=O)O)C(=O)O)C(=O)N[C@@H](CC(=O)O)C(=O)N[C@@](C)(Cc1ccccc1)C(=O)N[C@H](C(=O)N[C@@H](CCC(N)=O)C(=O)N[C@@H](Cc1c[nH]c2ccccc12)C(=O)N[C@@H](CC(C)C)C(=O)N[C@@H](CCS(C)(=O)=O)C(=O)N[C@@H](CC(=O)O)C(=O)N[C@H](C(N)=O)[C@@H](C)O)C(C)C [TP590] (H-H[Aib]QGTFTSDYSKYLDARAAK([AEEA-AEEA-γGlu-C20 diacid])D[αMeF]VQWL[Met(O2)]DT-NH2)
hGCGR/hGLP1R (hTone) (human GCGR): 3.1
EC50 (human GCGR; [1]): < 5 nM
EC50 (human GLP1R; [2]): < 5 nM

CC(C)C[C@H](NC(=O)[C@H](Cc1c[nH]c2ccccc12)NC(=O)[C@H](CCC(N)=O)NC(=O)[C@@H](NC(=O)[C@H](Cc1ccccc1)NC(=O)[C@H](CC(=O)O)NC(=O)[C@H](CCCCNC(=O)COCCOCCNC(=O)COCCOCCNC(=O)CC[C@H](NC(=O)CCCCCCCCCCCCCCCCCCC(=O)O)C(=O)O)NC(=O)[C@H](C)NC(=O)[C@H](C)NC(=O)[C@H](CCCNC(=N)N)NC(=O)C(C)(C)NC(=O)[C@H](CC(=O)O)NC(=O)[C@H](CC(C)C)NC(=O)[C@H](Cc1ccc(O)cc1)NC(=O)[C@H](CCCCN)NC(=O)[C@H](CO)NC(=O)[C@H](Cc1ccc(O)cc1)NC(=O)[C@H](CC(=O)O)NC(=O)[C@H](CO)NC(=O)[C@@H](NC(=O)[C@H](Cc1ccccc1)NC(=O)[C@@H](NC(=O)CNC(=O)[C@H](CCC(N)=O)NC(=O)[C@](C)(CO)NC(=O)[C@@H](N)Cc1c[nH]cn1)[C@@H](C)O)[C@@H](C)O)C(C)C)C(=O)N[C@@H](CCS(C)(=O)=O)C(=O)N[C@@H](CC(=O)O)C(=O)N[C@H](C(N)=O)[C@@H](C)O [TP592] (H-H[αMeS]QGTFTSDYSKYLD[Aib]RAAK([AEEA-AEEA-γGlu-C20 diacid])DFVQWL[Met(O2)]DT-NH2; N-terminus assumed)
EC50 (human GCGR; [3]): 3.39 nM
hGCGR/hGLP1R (hTone) (human GCGR): 1.4
EC50 (human GCGR; [1]): < 5 nM
EC50 (human GLP1R; [2]): < 5 nM

CC(C)C[C@H](NC(=O)[C@H](Cc1c[nH]c2ccccc12)NC(=O)[C@H](CCC(N)=O)NC(=O)[C@@H](NC(=O)[C@H](Cc1ccccc1)NC(=O)[C@H](CC(=O)O)NC(=O)[C@H](CCCCNC(=O)COCCOCCNC(=O)COCCOCCNC(=O)CC[C@H](NC(=O)CCCCCCCCCCCCCCCCCCC(=O)O)C(=O)O)NC(=O)[C@H](C)NC(=O)[C@H](C)NC(=O)[C@H](CCCNC(=N)N)NC(=O)C(C)(C)NC(=O)[C@H](CC(=O)O)NC(=O)[C@H](CC(C)C)NC(=O)[C@H](Cc1ccc(O)cc1)NC(=O)[C@H](CCCCN)NC(=O)[C@H](CO)NC(=O)[C@H](Cc1ccc(O)cc1)NC(=O)[C@H](CC(=O)O)NC(=O)[C@H](CO)NC(=O)[C@@H](NC(=O)[C@H](Cc1ccccc1)NC(=O)[C@@H](NC(=O)CNC(=O)[C@H](CCC(N)=O)NC(=O)[C@](C)(CO)NC(=O)[C@@H](N)Cc1c[nH]cn1)[C@@H](C)O)[C@@H](C)O)C(C)C)C(=O)N[C@@H](CCS(C)(=O)=O)C(=O)N[C@@H](CC(=O)O)C(=O)N[C@H](C(N)=O)[C@@H](C)O [TP593] (H-H[αMeS]QGTFTSDYSKYLD[Aib]RAAK([AEEA-AEEA-γGlu-C20 diacid])DFVQWL[Met(O2)]DT-NH2)
EC50 (human GCGR; [3]): 0.73 nM
hGCGR/hGLP1R (hTone) (human GCGR): <0.15
EC50 (human GLP1R; [4]): 4.95 nM

CC(C)C[C@H](NC(=O)[C@H](Cc1ccc(O)cc1)NC(=O)[C@H](CCCCN)NC(=O)[C@H](CO)NC(=O)[C@H](Cc1ccc(O)cc1)NC(=O)[C@H](CC(=O)O)NC(=O)[C@H](CO)NC(=O)[C@@H](NC(=O)[C@H](Cc1ccccc1)NC(=O)[C@@H](NC(=O)CNC(=O)[C@H](CCC(N)=O)NC(=O)C(C)(C)NC(=O)[C@@H](N)Cc1c[nH]cn1)[C@@H](C)O)[C@@H](C)O)C(=O)N[C@@H](CC(=O)O)C(=O)N[C@@H](C)C(=O)N[C@@H](CCCNC(=N)N)C(=O)N[C@@H](C)C(=O)N[C@@H](C)C(=O)N[C@@H](CCCCNC(=O)COCCOCCNC(=O)COCCOCCNC(=O)CC[C@H](NC(=O)CCCCCCCCCCCCCCCCCCC(=O)O)C(=O)O)C(=O)N[C@@](C)(CC(=O)O)C(=O)N[C@@H](Cc1ccccc1)C(=O)N[C@H](C(=O)N[C@@H](CCC(N)=O)C(=O)N[C@@H](Cc1c[nH]c2ccccc12)C(=O)N[C@@H](CC(C)C)C(=O)N[C@@H](CCS(C)(=O)=O)C(=O)N[C@@H](CC(=O)O)C(=O)N[C@H](C(N)=O)[C@@H](C)O)C(C)C [TP594] (H-H[Aib]QGTFTSDYSKYLDARAAK([AEEA-AEEA-γGlu-C20 diacid])[αMeD]FVQWL[Met(O2)]DT-NH2; N-terminus assumed)
EC50 (human GCGR; [3]): 4.95 nM
hGCGR/hGLP1R (hTone) (human GCGR): 1.9
EC50 (human GCGR; [1]): < 5 nM
EC50 (human GLP1R; [2]): < 5 nM

CC(C)C[C@H](NC(=O)[C@H](Cc1ccc(O)cc1)NC(=O)[C@H](CCCCN)NC(=O)[C@H](CO)NC(=O)[C@H](Cc1ccc(O)cc1)NC(=O)[C@H](CC(=O)O)NC(=O)[C@H](CO)NC(=O)[C@H](Cc1ccccc1)NC(=O)[C@H](Cc1ccccc1)NC(=O)[C@@H](NC(=O)CNC(=O)[C@H](CCC(N)=O)NC(=O)C(C)(C)NC(=O)[C@@H](N)Cc1c[nH]cn1)[C@@H](C)O)C(=O)N[C@@H](CC(=O)O)C(=O)N[C@@H](C)C(=O)N[C@@H](CCCNC(=N)N)C(=O)N[C@@H](C)C(=O)N[C@@H](C)C(=O)N[C@@H](CCCCNC(=O)COCCOCCNC(=O)COCCOCCNC(=O)CC[C@H](NC(=O)CCCCCCCCCCCCCCCCC(=O)O)C(=O)O)C(=O)N[C@@H](CC(=O)O)C(=O)N[C@@H](Cc1ccccc1)C(=O)N[C@H](C(=O)N[C@@H](CCC(N)=O)C(=O)N[C@@H](Cc1c[nH]c2ccccc12)C(=O)N[C@@H](CC(C)C)C(=O)N[C@@H](CCS(C)(=O)=O)C(=O)N[C@@H](CC(=O)O)C(=O)N[C@H](C(N)=O)[C@@H](C)O)C(C)C [TP595] (H-H[Aib]QGTFFSDYSKYLDARAAK([AEEA-AEEA-γGlu-C18 diacid])DFVQWL[Met(O2)]DT-NH2; N-terminus assumed)
hGCGR/hGLP1R (hTone) (human GCGR): 0.2
EC50 (human GCGR; [1]): < 5 nM
EC50 (human GLP1R; [4]): > 20 nM
EC50 (human GLP1R; [2]): < 5 nM
